Earlier results on one compound are cited in patent US20200022905A1 (priority 2009, published 2020).

Where two headings read alike, the source gives them in different places.

For data set [1] the following is noted: especially by non-smokers.
Assay in data set [2]: not given
This is another data set of the same source.

As to `CN1CCCC1c1cccnc1` (stereo not shown) [Nicotine], the “dose after which serious toxic reactions may be experienced” value in data set [1] is reported as 4 to 8 mg. In addition, the “ratio of non-ionized form” value (pH 7.4) is reported as 30% and the “ratio of non-ionized form” value (pH 8.5) is 80%. The “time to get to the brain after smoke inhalation” value in data set [2] is given as “ten to twenty”.
